biological target: SARS2 coronavirus 3CL protease (Severe acute respiratory syndrome coronavirus 2, UniProt P0DTD1); assay: SARS2 Coronavirus 3CL Protease Assay (FRET); format: biochemical; settings: 5 nM protease pre-incubated with compound 30 minutes; 15 uM peptide substrate; 4 h room temperature; read-out: FRET Potency (nM); IC50 values in the SARS2 3CLPro FRET assay
Experimental: The enzymatic activity of SARS2 coronavirus 3CL protease was determined in a FRET (fluorescence resonance energy transfer)-based assay measuring the cleavage of a peptide substrate by recombinantly expressed and purified enzyme. Cleavage of the peptide SEQ ID NO: 1 (CPC Scientific) by SARS2 3CL protease was measured in reaction buffer (50 mM Hepes pH 7.5, 0.01% Triton X-100, 0.01% BSA, 2 mM DTT). […] Room temperature reactions (4 h) were quenched by addition of a high dose of inhibitor and read on an appropriate plate reader (excitation wavelength=495 nm, emission wavelength=520 nm). Data were analyzed by a standard 4 parameter fit to determine IC50 values.

Point of comparison: `CNC(=O)C(=O)[C@H](CCC(C)(F)F)NC(=O)c1cc(Cl)ccc1NC(=O)[C@H](C)OC` [Example 60, 5-chloro-N-[(1S)-4,4-difluoro-1-[2-(methylamino)-2-oxo-acetyl]pentyl]-2-[[(2S)-2-methoxypropanoyl]amino] benzamide], IC50 9.4 nM. Against it:
- CNC(=O)C(=O)[C@H](CCC(C)(F)F)NC(=O)c1cc(Cl)ccc1NC(=O)C1CC12CC2 (single isomer, unassigned) [Example 33] — 2.3-fold higher, 21.5 nM
- CNC(=O)C(=O)[C@H](CCC(C)(F)F)NC(=O)c1cc(F)cnc1NC(=O)C(C)(C)C [Example 43, N-[(1S)-4,4-difluoro-1-[2-(methylamino)-2-oxo-acetyl]pentyl]-2-(2,2-dimethylpropanoylamino)-5-fluoro-pyridine-3-carboxamide] — 5.3-fold higher, 49.6 nM
- CNC(=O)C(=O)[C@H](CCC(C)(F)F)NC(=O)c1cc(F)ccc1NC(=O)C1(C(F)(F)F)CC1 [Example 42, N-[(1S)-4,4-difluoro-1-[2-(methylamino)-2-oxo-acetyl]pentyl]-5-fluoro-2-[[1-(trifluoromethyl)cyclopropane-carbonyl]amino]benzamide] — 5-fold higher, 47 nM
- CC(F)(F)CC[C@H](NC(=O)c1cc(Cl)cnc1NC(=O)C1(C(F)(F)F)CC1)C(=O)C(=O)NC1CC1 [Example 44, 5-chloro-N-[(1S)-1-[2-(cyclopropylamino)-2-oxo-acetyl]-4,4-difluoro-pentyl]-2-[[1-(trifluoromethyl)cyclopropane-carbonyl]amino]pyridine-3-carboxamide] — 5.4-fold higher, 50.4 nM
- CNC(=O)C(=O)[C@H](CCC(C)(F)F)NC(=O)c1cc(Cl)ccc1NC(=O)C1CCOCC1 [Example 16, N-[4-chloro-2-[[(1S)-4,4-difluoro-1-[2-(methylamino)-2-oxo-acetyl]pentyl]carbamoyl]phenyl] tetrahydropyran-4-carboxamide] — within 1.5-fold, 8.5 nM
- CNC(=O)C(=O)[C@H](CCC(C)F)NC(=O)c1cc(Cl)ccc1NC(=O)OC (single isomer, unassigned) [Example 6C] — within 1.5-fold, 13.6 nM
- CNC(=O)C(=O)[C@H](CCC(C)(F)F)NC(=O)c1cc(Cl)ccc1NC(=O)C1CC1C(F)(F)F (stereo partly drawn) [Example 30, 5-chloro-N-[(1S)-4,4-difluoro-1-[2-(methylamino)-2-oxo-acctyl]pentyl]-2-[[2-(trifluoromethyl)cyclopropane-carbonyl]amino]benzamide] — 2.2-fold higher, 20.7 nM
- CNC(=O)C(=O)[C@H](CCC(C)(F)F)NC(=O)c1cc(Cl)ccc1NC(=O)[C@H]1CC1(F)F [Example 23, 5-chloro-2-[[(1R)-2,2-difluorocyclopropanecarbonyl]amino]-N-[(1S)-4,4-difluoro-1-[2-(methylamino)-2-oxo-acetyl]pentyl]benzamide] — within 1.5-fold, 13.2 nM
- CNC(=O)C(=O)[C@H](CCC(C)(F)F)NC(=O)c1cc(F)cnc1NC(=O)C12CC(F)(C1)C2 [Example 35, N-[(1S)-4,4-difluoro-1-[2-(methylamino)-2-oxo-acetyl]pentyl]-5-fluoro-2-[(3-fluorobicyclo[1.1.1]pentane-1-carbonyl)amino]pyridine-3-carboxamide] — 2.5-fold higher, 23.9 nM
- COC(=O)N[C@H](C(=O)Nc1ccc(Cl)cc1C(=O)N[C@@H](CCC(C)(F)F)C(=O)C(=O)NC1CC1)C(C)(C)C [Example 3, Methyl ((S)-1-((4-chloro-2-(((S)-1-(cyclopropylamino)-6,6-difluoro-1,2-dioxoheptan-3-yl)carbamoyl)phenyl)amino)-3,3-dimethyl-1-oxobutan-2-yl)carbamate] — 2.6-fold higher, 24 nM
- CNC(=O)C(=O)[C@H](CCC(C)(F)F)NC(=O)c1cc(Cl)ccc1NC(=O)C(C)c1cscn1 (stereo partly drawn) [Example 10, 5-chloro-N-[(1S)-4,4-difluoro-1-[2-(methylamino)-2-oxo-acetyl]pentyl]-2-(2-thiazol-4-ylpropanoylamino)benzamide] — within 1.5-fold, 7 nM
- CNC(=O)C(=O)[C@H](CCC(C)(F)F)NC(=O)c1cc(Cl)ccc1NC(=O)c1cccnc1 [Example 52] — 1.7-fold higher, 15.6 nM
- CNC(=O)C(=O)[C@H](CCC(C)(F)F)NC(=O)c1cc(Cl)ccc1NC(=O)C1CC(F)(F)C1 [Example 13, 5-chloro-2-[(3,3-difluorocyclobutanecarbonyl)amino]-N-[(1S)-4,4-difluoro-1-[2-(methylamino)-2-oxo-acetyl]pentyl]benzamide] — within 1.5-fold, 8 nM
- CNC(=O)C(=O)[C@H](CCC(C)(F)F)NC(=O)c1cc(Cl)ccc1NC(=O)C1CC12CCOCC2 (stereo partly drawn) [Example 11, N-[4-chloro-2-[[(1S)-4,4-difluoro-1-[2-(methylamino)-2-oxo-acetyl]pentyl]carbamoyl]phenyl]-6-oxaspiro[2.5]octane-2-carboxamide] — within 1.5-fold, 7.7 nM
- CNC(=O)C(=O)[C@H](CCC(C)(F)F)NC(=O)c1cc(Cl)ccc1NC(=O)C1(C(F)(F)F)CC1 [Example 20, 5-chloro-N-[(1S)-4,4-difluoro-1-[2-(methylamino)-2-oxo-acetyl]pentyl]-2-[[1-(trifluoromethyl)cyclopropane-carbonyl]amino]benzamide] — within 1.5-fold, 11.6 nM
- CNC(=O)C(=O)[C@H](CCC(C)(F)F)NC(=O)c1cc(F)cnc1NC(=O)c1cccc(C(F)(F)F)c1 [Example 18, N-[(1S)-4,4-difluoro-1-[2-(methylamino)-2-oxo-acetyl]pentyl]-5-fluoro-2-[[3-(trifluoromethyl)benzoyl]amino]pyridine-3-carboxamide] — within 1.5-fold, 9.8 nM
- CNC(=O)C(=O)[C@H](CCC(C)(F)F)NC(=O)c1cc(Cl)ccc1NC(=O)C1CCc2scnc21 (stereo partly drawn) [Example 15, N-[4-chloro-2-[[(1S)-4,4-difluoro-1-[2-(methylamino)-2-oxo-acetyl]pentyl]carbamoyl]phenyl]-5,6-dihydro-4H-cyclopenta[d]thiazole-4-carboxamide] — within 1.5-fold, 8.4 nM
- CNC(=O)C(=O)[C@H](CCC(C)(F)F)NC(=O)c1cc(Cl)cnc1NC(=O)C12CC(C(F)(F)F)(C1)C2 [Example 2, (S)-5-chloro-N-(6,6-difluoro-1-(methylamino)-1,2-dioxoheptan-3-yl)-2-(3-(trifluoromethyl)bicyclo[1.1.1]pentane-1-carboxamido)nicotinamide] — within 1.5-fold, 11.6 nM
- CNC(=O)C(=O)[C@H](CCC(C)(F)F)NC(=O)c1cc(Cl)ccc1NC(=O)C1CN(C)C1 [Example 50, N-[4-chloro-2-[[(1S)-4,4-difluoro-1-[2-(methylamino)-2-oxo-acetyl]pentyl]carbamoyl]phenyl]-1-methyl-azetidine-3-carboxamide] — 2.3-fold higher, 21.8 nM
- CNC(=O)C(=O)[C@H](CCC(C)(F)F)NC(=O)c1cc(Cl)ccc1NC(=O)OC [Example 49, methyl N-[4-chloro-2-[[(1S)-4,4-difluoro-1-[2-(methylamino)-2-oxo-acetyl]pentyl]carbamoyl]phenyl]carbamate] — within 1.5-fold, 7.1 nM
- CNC(=O)C(=O)[C@H](CCC(C)(F)F)NC(=O)c1cc(Cl)ccc1NC(=O)C1CC1C(F)(F)F (stereo partly drawn) [Example 48, 5-chloro-N-[(1S)-4,4-difluoro-1-[2-(methylamino)-2-oxo-acetyl]pentyl]-2-[[2-(trifluoromethyl)cyclopropane-carbonyl]amino]benzamide] — within 1.5-fold, 11.3 nM
- CC(F)(F)CC[C@H](NC(=O)c1cc(Cl)cnc1NC(=O)c1cccc(C(F)(F)F)c1)C(=O)C(=O)NC1CC1 [Example 5, (S)-5-chloro-N-(1-(cyclopropylamino)-6,6-difluoro-1,2-dioxoheptan-3-yl)-2-(3-(trifluoromethyl)benzamido)nicotinamide] — within 1.5-fold, 9.2 nM
- CC(F)(F)CC[C@H](NC(=O)c1cc(Cl)ccc1NC(=O)c1ccnc(C(F)(F)F)c1)C(=O)C(N)=O [Example 7, (S)—N-(2-((1-amino-6,6-difluoro-1_2-dioxoheptan-3-yl)carbamoyl)-4-chlorophenyl)-2-(trifluoromethyl)isonicotinamide] — 1.9-fold higher, 18 nM
- CNC(=O)C(=O)[C@H](CCC(C)(F)F)NC(=O)c1cc(Cl)ncc1NC(=O)OC [Example 55, methyl N-[6-chloro-4-[[(1S)-4,4-difluoro-1-[2-(methylamino)-2-oxo-acetyl]pentyl]carbamoyl]-3-pyridyl]carbamate] — 10-fold higher, 93.8 nM
- CNC(=O)C(=O)[C@H](CCC(C)(F)F)NC(=O)c1cc(Cl)cnc1NC(=O)OC [Example 56, methyl N-[5-chloro-3-[[(1S)-4,4-difluoro-1-[2-(methylamino)-2-oxo-acetyl]pentyl]carbamoyl]-2-pyridyl]carbamate] — 2.2-fold lower, 4.2 nM
- CNC(=O)C(=O)[C@H](CCC(C)(F)F)NC(=O)c1cc(Cl)ccc1NC(=O)C1CCc2scnc21 (stereo partly drawn) [Example 9, N-[4-chloro-2-[[(1S)-4,4-difluoro-1-[2-(methylamino)-2-oxo-acetyl]pentyl]carbamoyl]phenyl]-5,6-dihydro-4H-cyclopenta[d]thiazole-4-carboxamide] — within 1.5-fold, 7 nM
- CNC(=O)C(=O)[C@H](CCC(C)(F)F)NC(=O)c1cc(Cl)ccc1NC(=O)C(C)C [Example 58, 5-chloro-N-[(1S)-4,4-difluoro-1-[2-(methylamino)-2-oxo-acetyl]pentyl]-2-(2-methylpropanoylamino) benzamide] — 1.5-fold lower, 6.2 nM
- CC(F)(F)CC[C@H](NC(=O)c1cc(Cl)cnc1NC(=O)C12CC(C(F)(F)F)(C1)C2)C(=O)C(=O)NC1CC1 [Example 27, 5-chloro-N-[(1S)-1-[2-(cyclopropylamino)-2-oxo-acetyl]-4,4-difluoro-pentyl]-2-[[3-(trifluoromethyl)bicyclo[1.1.1]pentane-1-carbonyl]amino]pyridine-3-carboxamide] — 1.9-fold higher, 17.4 nM
- CNC(=O)C(=O)[C@H](CCC(C)(F)F)NC(=O)c1cc(Cl)ccc1NC(=O)C1CC1C(F)(F)F (stereo partly drawn) [Example 32, 5-chloro-N-[(1S)-4,4-difluoro-1-[2-(methylamino)-2-oxo-acetyl]pentyl]-2-[[2-(trifluoromethyl)cyclopropane-carbonyl]amino]benzamide] — 2.3-fold higher, 21.3 nM

Reference: patent US20260209180A1, “PROTEASE INHIBITORS FOR TREATING OR PREVENTING CORONAVIRUS INFECTION” (Merck Sharp & Dohme LLC, priority 2023, published 2026)
